# Source: ChEMBL document CHEMBL5523755, “Design, Synthesis, and Biological Evaluation of 1,4-Dihydropyridine-Indole as a Potential Antidiabetic Agent via GLUT4 Translocation Stimulation” (J Med Chem, 2024)
# The source made the active and inactive calls. The rule behind the calls is not given here.
# Columns and labels:
# [1] = target: T1, Solute carrier family 2, facilitated glucose transporter member 4 (Rattus norvegicus) (UniProt P19357); experiment: Induction of GLUT4 translocation in rat L6-GLUT4myc skeletal muscle cells assessed as translocation to cell surface by measuring fold stimulation at 10 uM measured after 1 hr incubation by antibody-coupled colorimetric assay relative to control; assay type: cell-based; conditions: filed as modulator
# T1 sequence (whole entry): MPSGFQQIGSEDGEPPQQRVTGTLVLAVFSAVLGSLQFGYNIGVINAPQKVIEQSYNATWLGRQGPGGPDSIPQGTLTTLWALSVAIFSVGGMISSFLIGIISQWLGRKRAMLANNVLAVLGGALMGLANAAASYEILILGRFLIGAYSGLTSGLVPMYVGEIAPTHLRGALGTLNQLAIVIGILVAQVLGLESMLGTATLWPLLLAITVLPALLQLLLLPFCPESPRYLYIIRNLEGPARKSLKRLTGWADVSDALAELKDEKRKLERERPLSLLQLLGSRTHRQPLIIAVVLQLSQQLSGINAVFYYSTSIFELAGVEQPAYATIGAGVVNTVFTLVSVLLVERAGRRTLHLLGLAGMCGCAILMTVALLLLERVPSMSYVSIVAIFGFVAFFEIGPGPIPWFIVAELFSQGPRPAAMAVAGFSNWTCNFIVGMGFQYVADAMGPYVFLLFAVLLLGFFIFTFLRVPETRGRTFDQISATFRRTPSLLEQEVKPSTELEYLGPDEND
# [2] = target: T2, Beta-galactosidase (Homo sapiens) (UniProt P16278); experiment: Inhibition of beta-galactosidase (unknown origin) at 100 uM relative to control
# T2 sequence (whole entry): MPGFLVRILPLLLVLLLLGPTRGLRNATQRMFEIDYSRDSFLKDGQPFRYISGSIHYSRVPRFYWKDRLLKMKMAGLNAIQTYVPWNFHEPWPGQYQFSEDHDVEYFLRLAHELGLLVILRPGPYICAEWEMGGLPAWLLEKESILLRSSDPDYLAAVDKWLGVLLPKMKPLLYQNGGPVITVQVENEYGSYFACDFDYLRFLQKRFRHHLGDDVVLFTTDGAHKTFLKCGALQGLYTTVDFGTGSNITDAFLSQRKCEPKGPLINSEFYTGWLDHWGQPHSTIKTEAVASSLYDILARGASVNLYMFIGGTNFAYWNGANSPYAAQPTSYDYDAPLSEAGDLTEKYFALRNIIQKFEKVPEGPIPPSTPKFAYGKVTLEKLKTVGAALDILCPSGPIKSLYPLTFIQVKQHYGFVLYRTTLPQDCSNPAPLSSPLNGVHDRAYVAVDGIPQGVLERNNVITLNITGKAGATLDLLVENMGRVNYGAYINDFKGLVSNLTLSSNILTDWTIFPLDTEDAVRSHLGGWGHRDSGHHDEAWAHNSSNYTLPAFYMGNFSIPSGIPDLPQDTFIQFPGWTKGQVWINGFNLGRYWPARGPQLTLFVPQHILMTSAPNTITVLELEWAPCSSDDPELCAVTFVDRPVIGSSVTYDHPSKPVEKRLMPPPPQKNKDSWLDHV
# [3] = target: T1, Solute carrier family 2, facilitated glucose transporter member 4 (Rattus norvegicus); experiment: Induction of GLUT4 translocation in rat L6-GLUT4myc skeletal muscle cells assessed as translocation to cell surface by measuring fold stimulation measured after 16 hrs incubation by antibody-coupled colorimetric assay relative to control; assay type: cell-based; conditions: filed as modulator, dose 5-25 µM
# [4] = target: T1, Solute carrier family 2, facilitated glucose transporter member 4 (Rattus norvegicus); experiment: Induction of insulin-induced GLUT4 translocation in rat L6-GLUT4myc skeletal muscle cells assessed as translocation to cell surface at 10 uM measured after 16 hrs incubation (final 3 hrs under serum starved medium) followed by stimulated with 100 nM insulin for 20 mins by antibody-coupled colorimetric assay; assay type: cell-based
# [5] = target: T1, Solute carrier family 2, facilitated glucose transporter member 4 (Rattus norvegicus); experiment: Induction of GLUT4 translocation in rat L6-GLUT4myc skeletal muscle cells assessed as translocation to cell surface by measuring fold stimulation at 10 uM measured after 16 hrs incubation in presence of wortmannin PI3 Kinase inhibitor by antibody-coupled colorimetric assay; assay type: cell-based
# [6] = target: T1, Solute carrier family 2, facilitated glucose transporter member 4 (Rattus norvegicus); experiment: Induction of GLUT4 translocation in rat L6-GLUT4myc skeletal muscle cells assessed as translocation to cell surface by measuring fold stimulation at 10 uM measured after 16 hrs incubation in presence of compound c AMPK inhibitor by antibody-coupled colorimetric assay; assay type: cell-based; conditions: filed as modulator
# [7] = target: RAC-alpha serine/threonine-protein kinase (Rattus norvegicus) (UniProt P47196); experiment: Induction of AKT phosphorylation at Ser 473 in rat L6-GLUT4myc skeletal muscle cells at 10 uM measured after 16 hrs incubation by immunoblotting analysis; assay type: cell-based; conditions: filed as modulator
# Sequence of RAC-alpha serine/threonine-protein kinase (Rattus norvegicus) (P47196 whole entry): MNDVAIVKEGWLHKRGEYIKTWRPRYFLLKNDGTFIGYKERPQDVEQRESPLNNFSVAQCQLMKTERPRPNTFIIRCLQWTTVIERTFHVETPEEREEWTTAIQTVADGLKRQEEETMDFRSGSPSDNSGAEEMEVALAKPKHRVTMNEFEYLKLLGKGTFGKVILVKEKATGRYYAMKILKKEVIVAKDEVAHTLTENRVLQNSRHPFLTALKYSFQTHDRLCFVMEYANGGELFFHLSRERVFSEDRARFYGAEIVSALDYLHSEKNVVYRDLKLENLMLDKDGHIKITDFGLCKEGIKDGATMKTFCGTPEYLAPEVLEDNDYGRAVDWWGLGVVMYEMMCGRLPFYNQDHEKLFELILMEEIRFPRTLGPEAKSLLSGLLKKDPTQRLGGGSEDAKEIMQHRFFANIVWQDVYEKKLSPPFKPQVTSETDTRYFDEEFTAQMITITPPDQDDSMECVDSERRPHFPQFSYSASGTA
# [8] = system: L6-GLUT4myc; experiment: Induction of GPR40 expression in rat L6-GLUT4myc skeletal muscle cells assessed as increase in mRNA level at 10 uM measured after overnight incubation by RT-PCR analysis; assay type: functional, cell-based; conditions: filed as activator
# [9] = system: Rattus norvegicus; experiment: Antihyperglycemic activity in STZ-induced Sprague-Dawley rat diabetic model assessed as decrease in blood glucose at 100 mg/kg, po measured upto 300 mins; assay type: functional, organism-based
# [10] = Stability of the compound in simulated gastric fluid (SGF) assessed as compound remaining measured upto 120 mins relative to control; assay type: ADME; conditions: read-out: Stability
# [11] = Stability of the compound in simulated intestinal fluid (SIF) assessed as compound remaining measured upto 120 mins relative to control; assay type: ADME; conditions: read-out: Stability
# [12] = Stability of the compound in simulated physiological fluid (SPF) assessed as compound remaining measured upto 120 mins relative to control; assay type: ADME; conditions: read-out: Stability
# [13] = Stability of the compound in rat plasma assessed as compound remaining measured upto 120 mins relative to control; assay type: ADME, cell-free; conditions: read-out: Stability
# [14] = Cmax in Sprague-Dawley rat at 100 mg/kg, po measured after 48 hrs by LC-MS/MS analysis; assay type: ADME, organism-based; conditions: in vivo
# [15] = Tmax in Sprague-Dawley rat at 100 mg/kg, po measured after 48 hrs by LC-MS/MS analysis; assay type: ADME, organism-based; conditions: in vivo
# [16] = AUC in Sprague-Dawley rat at 100 mg/kg, po measured after 48 hrs by LC-MS/MS analysis; assay type: ADME, organism-based; conditions: in vivo
# [17] = Elimination half life in Sprague-Dawley rat at 100 mg/kg, po measured after 48 hrs by LC-MS/MS analysis; assay type: ADME, organism-based; conditions: in vivo, read-out: beta t1/2 (converted)
# [18] = Clearance in Sprague-Dawley rat at 100 mg/kg, po measured after 48 hrs by LC-MS/MS analysis; assay type: ADME, organism-based; conditions: in vivo
# [19] = Apparent volume of distribution in Sprague-Dawley rat at 100 mg/kg, po measured after 48 hrs by LC-MS/MS analysis; assay type: ADME, organism-based; conditions: in vivo
# [20] = MRT in Sprague-Dawley rat at 100 mg/kg, po measured after 48 hrs by LC-MS/MS analysis; assay type: ADME, organism-based; conditions: in vivo
# [21] = target: T1, Solute carrier family 2, facilitated glucose transporter member 4 (Rattus norvegicus); experiment: Induction of GLUT4 translocation in rat L6-GLUT4myc skeletal muscle cells assessed as translocation to cell surface by measuring fold stimulation at 500 uM measured after 1 hr incubation by antibody-coupled colorimetric assay relative to control; assay type: cell-based; conditions: filed as modulator
structure (smiles),measurement,setting,value
CC1=C(C(=O)NCCc2c[nH]c3ccccc23)C(c2ccc(C#N)cc2)C2=C(CC(C)(C)CC2=O)N1 (stereo not drawn),fold change (FC),[1],0.96
CCOC(=O)C1=C(C)NC2=C(C(=O)CC(C)(C)C2)C1c1ccc(Cl)c(Cl)c1 (stereo not drawn),fold change (FC),[1],1.92
CC1=C(C(=O)NCCc2c(C)[nH]c3ccccc23)C(c2ccc(Cl)c(Cl)c2)C2=C(CC(C)(C)CC2=O)N1 (stereo not drawn),fold change (FC),[1],1.42
CC1=C(C(=O)NCCc2c[nH]c3ccccc23)C(c2ccco2)C2=C(CCCC2=O)N1 (stereo not drawn),fold change (FC),[1],1.62
CC1=C(C(=O)Nc2ccccc2)C(c2ccc(Cl)c(Cl)c2)C2=C(CC(C)(C)CC2=O)N1 (stereo not drawn),fold change (FC),[1],1.1
COc1ccc2[nH]cc(CCNC(=O)C3=C(C)NC4=C(C(=O)CC(C)(C)C4)C3c3ccc(Cl)c(Cl)c3)c2c1 (stereo not drawn),fold change (FC),[1],1.37
CC1=C(C(=O)NCCc2c[nH]c3ccccc23)C(c2ccc(C(F)(F)F)cc2)C2=C(CC(C)(C)CC2=O)N1 (stereo not drawn),fold change (FC),[1],1.58
COc1ccc(C2C(C(=O)NCCc3c[nH]c4ccccc34)=C(C)NC3=C2C(=O)CCC3)cc1OC (stereo not drawn),fold change (FC),[1],1.48
O=C(NC(Cc1c[nH]c2ccccc12)C(=O)O)c1cccc(Cl)c1 (stereo not drawn),inhibition,[2],49%
CC1=C(C(=O)NCCc2c[nH]c3ccccc23)C(c2ccc(Cl)cc2)C2=C(CC(C)(C)CC2=O)N1 (stereo not drawn),fold change (FC),[1],1.49
CC1=C(C(=O)NCCc2c[nH]c3ccccc23)C(c2ccc(F)cc2)C2=C(CCCC2=O)N1 (stereo not drawn),fold change (FC),[1],1.54
CC1=C(C(=O)NCCc2c[nH]c3ccccc23)C(c2ccsc2)C2=C(CC(C)(C)CC2=O)N1 (stereo not drawn),fold change (FC),[1],1.87
same,Activity,[3],Dose-Dependent Effect
CCNC(=O)C1=C(C)NC2=C(C(=O)CC(C)(C)C2)C1c1ccc(Cl)c(Cl)c1 (stereo not drawn),fold change (FC),[1],1.16
Cc1nc2c(c(-c3ccc(Cl)c(Cl)c3)c1C(=O)NCCc1c[nH]c3ccccc13)C(=O)CC(C)(C)C2,fold change (FC),[1],1.42
CC1=C(C(=O)NCCc2c[nH]c3ccccc23)C(c2ccc(Cl)c(Cl)c2)C2=C(CC(C)(C)CC2=O)N1 (stereo not drawn),fold change (FC),[1],2.96
same,Activity,[3],Dose-Dependent Effect
same,Activity,[4],inactive
same,Activity,[5],inactive
same,Activity,[6],Active
same,Activity,[7],Active
same,Activity,[8],Active
same,Activity,[9],Active
same,remaining at 2 h,[10],90.8%
same,remaining at 2 h,[11],91.1%
same,remaining at 2 h,[12],96.2%
same,remaining at 2 h,[13],90.2%
same,Cmax,[14],51.7 ng/mL
same,Tmax,[15],0.42 h
same,AUC at 48 h,[16],367 ng·h/mL
same,half-life,[17],14.3 h
same,CL/F,[18],254 L/h/kg
same,Vd(app),[19],5281.28 L/kg
same,MRT,[20],20.8 h
COc1ccc(C2C(C(=O)NCCc3c[nH]c4ccccc34)=C(C)NC3=C2C(=O)CC(C)(C)C3)cc1 (stereo not drawn),fold change (FC),[1],1.39
CC1=C(C(=O)NCCc2c[nH]c3ccccc23)C(c2ccc(F)cc2)C2=C(CC(C)(C)CC2=O)N1 (stereo not drawn),fold change (FC),[1],1
COc1cc(C2C(C(=O)NCCc3c[nH]c4ccccc34)=C(C)NC3=C2C(=O)CC(C)(C)C3)cc(OC)c1OC (stereo not drawn),fold change (FC),[1],1.21
CC1=C(C(=O)NCCc2c[nH]c3ccccc23)C(c2cccc(Cl)c2Cl)C2=C(CC(C)(C)CC2=O)N1 (stereo not drawn),fold change (FC),[1],1.52
CC1=C(C(=O)NCCc2c[nH]c3ccccc23)C(c2cccc([N+](=O)[O-])c2)C2=C(CC(C)(C)CC2=O)N1 (stereo not drawn),fold change (FC),[1],1.86
same,Activity,[3],Dose-Dependent Effect
CSc1ccc(C2C(C(=O)NCCc3c[nH]c4ccccc34)=C(C)NC3=C2C(=O)CC(C)(C)C3)cc1 (stereo not drawn),fold change (FC),[1],1.33
COc1ccc(C2C(C(=O)NCCc3c[nH]c4ccccc34)=C(C)NC3=C2C(=O)CC(C)(C)C3)cc1OC (stereo not drawn),fold change (FC),[1],1.3
CC1=C(C(=O)NCCc2c[nH]c3ccccc23)C(c2ccc(O)c(O)c2)C2=C(CC(C)(C)CC2=O)N1 (stereo not drawn),fold change (FC),[1],0.99
NCCc1c[nH]c2ccccc12,fold change (FC),[1],1.08
COc1cc(C2C(C(=O)NCCc3c[nH]c4ccccc34)=C(C)NC3=C2C(=O)CCC3)cc(OC)c1OC (stereo not drawn),fold change (FC),[1],1.79
same,Activity,[3],Dose-Dependent Effect
CN(C)C(=N)NC(=N)N,fold change (FC),[21],1.86
CC1=C(C(=O)NCCc2c[nH]c3ccccc23)C(c2ccc([N+](=O)[O-])cc2)C2=C(CC(C)(C)CC2=O)N1 (stereo not drawn),fold change (FC),[1],1.72
CC1=C(C(=O)NCCc2c[nH]c3ccccc23)C(c2scnc2C)C2=C(CC(C)(C)CC2=O)N1 (stereo not drawn),fold change (FC),[1],1
CC1=C(C(=O)NCCc2c[nH]c3ccccc23)C(c2ccc(OC(F)(F)F)cc2)C2=C(CC(C)(C)CC2=O)N1 (stereo not drawn),fold change (FC),[1],2.11
same,Activity,[3],Dose-Dependent Effect
CC1=C(C(=O)NCCc2c[nH]c3ccccc23)C(c2c(Cl)cccc2Cl)C2=C(CC(C)(C)CC2=O)N1 (stereo not drawn),fold change (FC),[1],0.82
CC1=C(C(=O)NCCc2c[nH]c3ccccc23)C(c2cccs2)C2=C(CC(C)(C)CC2=O)N1 (stereo not drawn),fold change (FC),[1],1.09
CC1=C(C(=O)NCCc2c[nH]c3ccccc23)C(c2ccsc2)C2=C(CCCC2=O)N1 (stereo not drawn),fold change (FC),[1],1.64
CC1=C(C(=O)NCCc2c[nH]c3ccccc23)C(c2ccco2)C2=C(CC(C)(C)CC2=O)N1 (stereo not drawn),fold change (FC),[1],2.01
same,Activity,[3],Dose-Dependent Effect
CC1=C(C(=O)NCCc2c[nH]c3ccccc23)C(c2cccc([N+](=O)[O-])c2)C2=C(CCCC2=O)N1 (stereo not drawn),fold change (FC),[1],1.71
CC(=O)CC(=O)NCCc1c[nH]c2ccccc12,fold change (FC),[1],1.18
